From ChEMBL document CHEMBL4017472, “New modified 2-aminobenzimidazole nucleosides: Synthesis and evaluation of their activity against herpes simplex virus type 1” (Bioorg Med Chem Lett, 2017)

How the values were obtained:
Human alphaherpesvirus 1 [1] = assay: Potency index, ratio of ribavirin IC50 to compound IC50 for HSV-1 L2 infected in African green monkey Vero E6 cells; assay type: functional, Vero C1008
[2] = Selectivity index, ratio of MCC for African green monkey Vero E6 cells to IC50 for HSV-1 L2 infected in African green monkey Vero E6 cells; parameters: species or system Vero C1008
Human alphaherpesvirus 1 [3] = assay: Antiviral activity against acyclovir-resistant HSV-1 L2 infected in African green monkey Vero E6 cells assessed as reduction in virus-induced cytopathic effect; assay type: functional; conditions: Human alphaherpesvirus 1, L2, Vero C1008
Human alphaherpesvirus 1 [4] = assay: Antiviral activity against HSV-1 L2/Rp-ACV/2 infected in African green monkey Vero E6 cells assessed as reduction in virus-induced cytopathic effect; assay type: functional; conditions: Human alphaherpesvirus 1, L2/Rp-ACV/2, Vero C1008
Human alphaherpesvirus 1 [5] = assay: Antiviral activity against foscarnet-resistant HSV-1 F+ infected in African green monkey Vero E6 cells assessed as reduction in virus-induced cytopathic effect; assay type: functional; conditions: Human alphaherpesvirus 1, F+, Vero C1008
Human alphaherpesvirus 1 [6] = assay: Antiviral activity against acyclovir and foscarnet-resistant HSV-1 L2 infected in African green monkey Vero E6 cells assessed as reduction in virus-induced cytopathic effect; assay type: functional; conditions: Human alphaherpesvirus 1, L2, Vero C1008
Human alphaherpesvirus 1 [7] = assay: Antiviral activity against acyclovir and cidofovir-resistant HSV-1 L2 infected in African green monkey Vero E6 cells assessed as reduction in virus-induced cytopathic effect; assay type: functional; conditions: Human alphaherpesvirus 1, L2, Vero C1008
Human alphaherpesvirus 1 [8] = assay: Antiviral activity against HSV-1 L2 infected in African green monkey Vero E6 cells assessed as viral reproduction at 52 uM measured after 48 hrs post infection by gentian violet staining based plaque reduction assay (reference value: 6.91 +/- 0.05 log10PFU/ml); assay type: functional, Vero C1008
Human alphaherpesvirus 1 [9] = assay: Antiviral activity against HSV-1 L2/Rp-ACV/2 infected in African green monkey Vero E6 cells assessed as viral reproduction at 52 uM measured after 48 hrs post infection by gentian violet staining based plaque reduction assay (reference value: 6.05 +/- 0.1 log10PFU/ml); assay type: functional, Vero C1008
Human alphaherpesvirus 1 [10] = assay: Antiviral activity against foscarnet-resistant HSV-1 F+ infected in African green monkey Vero E6 cells assessed as viral reproduction at 52 uM measured after 48 hrs post infection by gentian violet staining based plaque reduction assay (reference value: 6.6 +/- 0.1 log10PFU/ml); assay type: functional, Vero C1008
Human alphaherpesvirus 1 [11] = assay: Antiviral activity against acyclovir and foscarnet-resistant HSV-1 L2 infected in African green monkey Vero E6 cells assessed as viral reproduction at 52 uM measured after 48 hrs post infection by gentian violet staining based plaque reduction assay (reference value: 5.92 +/- 0.11 log10PFU/ml); assay type: functional, Vero C1008
Human alphaherpesvirus 1 [12] = assay: Antiviral activity against acyclovir and cidofovir-resistant HSV-1 L2 infected in African green monkey Vero E6 cells assessed as viral reproduction at 52 uM measured after 48 hrs post infection by gentian violet staining based plaque reduction assay (reference value: 6.52 +/- 0.11 log10PFU/ml); assay type: functional, Vero C1008
Human alphaherpesvirus 1 [13] = assay: Antiviral activity against acyclovir-resistant HSV-1 L2 infected in African green monkey Vero E6 cells assessed as viral reproduction at 104 uM measured after 48 hrs post infection by gentian violet staining based plaque reduction assay (reference value: 5.95 +/- 0.03 log10PFU/ml); assay type: functional, Vero C1008
Human alphaherpesvirus 1 [14] = assay: Antiviral activity against HSV-1 L2 infected in African green monkey Vero E6 cells assessed as viral reproduction at 207 uM measured after 48 hrs post infection by gentian violet staining based plaque reduction assay (reference value: 6.91 +/- 0.05 log10PFU/ml); assay type: functional, Vero C1008
Human alphaherpesvirus 1 [15] = assay: Antiviral activity against acyclovir-resistant HSV-1 L2 infected in African green monkey Vero E6 cells assessed as viral reproduction at 207 uM measured after 48 hrs post infection by gentian violet staining based plaque reduction assay (reference value: 5.95 +/- 0.03 log10PFU/ml); assay type: functional, Vero C1008
Human alphaherpesvirus 1 [16] = assay: Antiviral activity against HSV-1 L2/Rp-ACV/2 infected in African green monkey Vero E6 cells assessed as viral reproduction at 207 uM measured after 48 hrs post infection by gentian violet staining based plaque reduction assay (reference value: 6.05 +/- 0.1 log10PFU/ml); assay type: functional, Vero C1008
Human alphaherpesvirus 1 [17] = assay: Antiviral activity against acyclovir and foscarnet-resistant HSV-1 L2 infected in African green monkey Vero E6 cells assessed as viral reproduction at 207 uM measured after 48 hrs post infection by gentian violet staining based plaque reduction assay (reference value: 5.92 +/- 0.11 log10PFU/ml); assay type: functional, Vero C1008
Human alphaherpesvirus 1 [18] = assay: Antiviral activity against HSV-1 L2 infected in African green monkey Vero E6 cells assessed as viral reproduction at 415 uM measured after 48 hrs post infection by gentian violet staining based plaque reduction assay (reference value: 6.91 +/- 0.05 log10PFU/ml); assay type: functional, Vero C1008
Human alphaherpesvirus 1 [19] = assay: Antiviral activity against acyclovir-resistant HSV-1 L2 infected in African green monkey Vero E6 cells assessed as viral reproduction at 415 uM measured after 48 hrs post infection by gentian violet staining based plaque reduction assay (reference value: 5.95 +/- 0.03 log10PFU/ml); assay type: functional, Vero C1008
Human alphaherpesvirus 1 [20] = assay: Antiviral activity against HSV-1 L2/Rp-ACV/2 infected in African green monkey Vero E6 cells assessed as viral reproduction at 415 uM measured after 48 hrs post infection by gentian violet staining based plaque reduction assay (reference value: 6.05 +/- 0.1 log10PFU/ml); assay type: functional, Vero C1008
Human alphaherpesvirus 1 [21] = assay: Antiviral activity against foscarnet-resistant HSV-1 F+ infected in African green monkey Vero E6 cells assessed as viral reproduction at 415 uM measured after 48 hrs post infection by gentian violet staining based plaque reduction assay (reference value: 6.6 +/- 0.1 log10PFU/ml); assay type: functional, Vero C1008
Human alphaherpesvirus 1 [22] = assay: Antiviral activity against acyclovir and foscarnet-resistant HSV-1 L2 infected in African green monkey Vero E6 cells assessed as viral reproduction at 415 uM measured after 48 hrs post infection by gentian violet staining based plaque reduction assay (reference value: 5.92 +/- 0.11 log10PFU/ml); assay type: functional, Vero C1008
Human alphaherpesvirus 1 [23] = assay: Antiviral activity against acyclovir and cidofovir-resistant HSV-1 L2 infected in African green monkey Vero E6 cells assessed as viral reproduction at 415 uM measured after 48 hrs post infection by gentian violet staining based plaque reduction assay (reference value: 6.52 +/- 0.11 log10PFU/ml); assay type: functional, Vero C1008
Human alphaherpesvirus 1 [24] = assay: Antiviral activity against HSV-1 L2 infected in African green monkey Vero E6 cells assessed as inhibition of viral reproduction measured after 48 hrs post infection by gentian violet staining based plaque reduction assay; assay type: functional; conditions: Vero C1008
Human alphaherpesvirus 1 [25] = assay: Antiviral activity against acyclovir-resistant HSV-1 L2 infected in African green monkey Vero E6 cells assessed as inhibition of viral reproduction measured after 48 hrs post infection by gentian violet staining based plaque reduction assay; assay type: functional; conditions: Vero C1008
Human alphaherpesvirus 1 [26] = assay: Antiviral activity against HSV-1 L2/Rp-ACV/2 infected in African green monkey Vero E6 cells assessed as inhibition of viral reproduction measured after 48 hrs post infection by gentian violet staining based plaque reduction assay; assay type: functional; conditions: Vero C1008
Human alphaherpesvirus 1 [27] = assay: Antiviral activity against acyclovir and foscarnet-resistant HSV-1 L2 infected in African green monkey Vero E6 cells assessed as inhibition of viral reproduction measured after 48 hrs post infection by gentian violet staining based plaque reduction assay; assay type: functional; conditions: Vero C1008
Human alphaherpesvirus 1 [28] = assay: Antiviral activity against acyclovir and cidofovir-resistant HSV-1 L2 infected in African green monkey Vero E6 cells assessed as inhibition of viral reproduction measured after 48 hrs post infection by gentian violet staining based plaque reduction assay; assay type: functional; conditions: Vero C1008

Nc1nc2cc(F)c(F)cc2n1[C@@H]1O[C@H](CO)[C@@H](O)[C@H]1O
Ratio IC50 (Human alphaherpesvirus 1 [1]): 4 | Selectivity Index [2]: >32 | IC50 (Human alphaherpesvirus 1 [3]): 104 µM | IC95 (Human alphaherpesvirus 1 [3]): 830 µM | IC50 (Human alphaherpesvirus 1 [4]): 104 µM | IC95 (Human alphaherpesvirus 1 [4]): 830 µM | IC50 (Human alphaherpesvirus 1 [5]): 208 µM | IC95 (Human alphaherpesvirus 1 [5]): 830 µM | IC50 (Human alphaherpesvirus 1 [6]): 208 µM | IC95 (Human alphaherpesvirus 1 [6]): 830 µM | IC50 (Human alphaherpesvirus 1 [7]): 208 µM | IC95 (Human alphaherpesvirus 1 [7]): 830 µM | Activity (Human alphaherpesvirus 1 [8]): 6.11 log10PFU/ml | Activity (Human alphaherpesvirus 1 [9]): 5.32 log10PFU/ml | Activity (Human alphaherpesvirus 1 [10]): 5.9 log10PFU/ml | Activity (Human alphaherpesvirus 1 [11]): 5.4 log10PFU/ml | Activity (Human alphaherpesvirus 1 [12]): 5.71 log10PFU/ml | Activity (Human alphaherpesvirus 1 [13]): 4.44 log10PFU/ml | Activity (Human alphaherpesvirus 1 [14]): 5.16 log10PFU/ml | Activity (Human alphaherpesvirus 1 [15]): 4.15 log10PFU/ml | Activity (Human alphaherpesvirus 1 [16]): 4.55 log10PFU/ml | Activity (Human alphaherpesvirus 1 [17]): 4.47 log10PFU/ml | Activity (Human alphaherpesvirus 1 [18]): 4.38 log10PFU/ml | Activity (Human alphaherpesvirus 1 [19]): 3.45 log10PFU/ml | Activity (Human alphaherpesvirus 1 [20]): 4.06 log10PFU/ml | Activity (Human alphaherpesvirus 1 [21]): 3.9 log10PFU/ml | Activity (Human alphaherpesvirus 1 [22]): 4.02 log10PFU/ml | Activity (Human alphaherpesvirus 1 [23]): 4.61 log10PFU/ml | inhibition (Human alphaherpesvirus 1 [24]): Dose-dependent effect | inhibition (Human alphaherpesvirus 1 [25]): Dose-dependent effect | inhibition (Human alphaherpesvirus 1 [26]): Dose-dependent effect | inhibition (Human alphaherpesvirus 1 [27]): Dose-dependent effect | inhibition (Human alphaherpesvirus 1 [28]): Dose-dependent effect
